This note sets out measurements from US10487093B2, “Heterocyclic compounds, in particular 2-oxo-4,4,5,5,6,6,7,7-octahydrobenzoxazole derivatives, and their use as antibacterial compounds” (priority 2016, dated 2019).

Assay [1] concerns Enterobacter cloacae NCTC 13406. The assay can be described thus: MIC, broth microdilution (CLSI) versus planktonic bacteria. Particulars: Enterobacter cloacae NCTC 13406, 16-20 h, mode of three independent experiments; for MIC: NCTC13406, read-out: MIC, Ecl NCTC 13406. Type of assay: cell-based.
For a further assay, the system named is E. coli MG1655 D87G. Type of assay: cell-based, Escherichia coli.
The next assay relates to E. coli ATCC BAA-2452. The assay can be described thus: MIC, broth microdilution (CLSI) versus planktonic bacteria. The assay is classed as cell-based. To be noted: Escherichia coli ATCC BAA-2452, 16-20 h, mode of three independent experiments; for MIC: read-out: MIC, Ec ATCC BAA 2452.
Assay [2] concerns Streptococcus pneumoniae ATCC 49619. Described as above. Type of assay: cell-based. Particulars: Streptococcus pneumoniae ATCC 49619, 16-20 h, mode of three independent experiments; for MIC: ATCC49619, read-out: MIC, Sp ATCC 49619.
The subject of assay [3] is Haemophilus influenzae ATCC 49247. The assay is described as above. The assay is classed as cell-based. To be noted: Haemophilus influenzae ATCC 49247, 16-20 h, mode of three independent experiments; for MIC: ATCC49247, read-out: MIC, Hi ATCC 49247.
In assay [4] the test system is Escherichia coli ATCC 25922. Described as above. Type of assay: cell-based. Particulars: Escherichia coli ATCC 25922, 16-20 h, mode of three independent experiments; for MIC: ATCC25922, read-out: MIC, Ec ATCC 25922.
Assay [5] relates to Staphylococcus aureus ATCC 29213. The description is as above. Type of assay: cell-based. Particulars: Staphylococcus aureus ATCC 29213, 16-20 h, mode of three independent experiments; for MIC: ATCC29213, read-out: MIC, Sa ATCC 29213.
A further assay deals with E. coli MG1655. The assay is described as above. The assay is classed as cell-based, Escherichia coli. Particulars: for MIC: Escherichia coli, MG1655, read-out: MIC, Ec MG1655 WT.
Assay [6] concerns human hepatic cell line (HepG2 ATCC HB-8065). The assay can be described thus: Human cell viability assay (CellTiter-Glo). To be noted: for IC50: Homo sapiens, HepG2, 24 h, read-out: IC50 (μg/mL) HepG2.
For the next assay, the system named is E. coli MG1655 S83L. The assay is classed as cell-based, Escherichia coli.
Assay [7] deals with Pseudomonas aeruginosa ATCC 27853. The assay can be described thus: MIC, broth microdilution (CLSI) versus planktonic bacteria. The assay is classed as cell-based. Particulars: Pseudomonas aeruginosa ATCC 27853, 16-20 h, mode of three independent experiments; for MIC: ATCC27853, read-out: MIC, Pa ATCC 27853.
Assay [8] relates to Acinetobacter baumannii ATCC 19606. The description is as above. To be noted: Acinetobacter baumannii ATCC 19606, 16-20 h, mode of three independent experiments; for MIC: ATCC19606, read-out: MIC, Ab ATCC 19606. Type of assay: cell-based.
In the next assay the test system is E. coli NCTC 13476. The assay is described as above. The assay is classed as cell-based. Particulars: Escherichia coli NCTC 13476, 16-20 h, mode of three independent experiments; for MIC: NCTC13476, read-out: MIC, Ec NCTC 13476.
In assay [9] the test system is Acinetobacter baumannii NCTC 13420. The assay is described as above. To be noted: Acinetobacter baumannii NCTC 13420, 16-20 h, mode of three independent experiments; for MIC: NCTC13420, read-out: MIC, Ab NCTC 13420. The assay is classed as cell-based.
[10] abbreviates: compared to the isogenic parent strain E. coli MG1655, D87G mutation on DNA gyrase subunit GyrA.
[11] abbreviates: compared to the isogenic parent strain E. coli MG1655, S83L mutation on DNA gyrase subunit GyrA.

Values after ≈ are worked out from the molar mass of the structure shown. Read-outs that look alike come from different tables or passages of the source.

Turning to `COc1ccc2ccc(=O)n(CCN(CCO)[C@H]3CC[C@H]4[C@@H](C3)OC(=O)N4c3ccc4c(n3)NC(=O)CO4)c2n1` [Compound 7, 1-(2-{[(3aS,6S,7aR)-2-oxo-3-{3-oxo-2H,3H,4H-pyrido[3,2-b][1,4]oxazin-6-yl}-octahydro-1,3-benzoxazol-6-yl](2-hydroxyethyl)amino}ethyl)-7-methoxy-1,2-dihydro-1,8-naphthyridin-2-one], the MIC is 1 to 10 µg/mL (≈ 1.82 to 18.2 µM) in [1]; 1 to 10 µg/mL (≈ 1.82 to 18.2 µM) in the assay with E. coli ATCC BAA-2452; under 1 µg/mL in assay [2]; 1 to 10 µg/mL (≈ 1.82 to 18.2 µM) in assay [3]; under 1 µg/mL in [4]; under 1 µg/mL in assay [5]. Moreover, the MIC in the assay with E. coli MG1655 was under 1 µg/mL; in [7] it was 1 to 10 µg/mL (≈ 1.82 to 18.2 µM); in [8], 1 to 10 µg/mL (≈ 1.82 to 18.2 µM); in the assay on E. coli NCTC 13476, 1 to 10 µg/mL (≈ 1.82 to 18.2 µM); in assay [9], under 1 µg/mL. Besides, the “Fold increase in MIC, E. coli MG1655 D87G” value in the assay on E. coli MG1655 D87G (setting [10]) was 1 fold. Also, in [6], the IC50 is over 100 µg/mL. In addition, the “Fold increase in MIC, E. coli MG1655 S83L” value in the assay with E. coli MG1655 S83L (setting [11]) stood at 1 fold.
`N#Cc1ccc2ccc(=O)n(CCCN[C@@H]3CC[C@@H]4[C@@H](C3)OC(=O)N4c3ccc4c(n3)NC(=O)CO4)c2c1` [Compound 74, 1-(3-{[(3aR,6R,7aR)-2-oxo-3-{3-oxo-2H,3H,4H-pyrido[3,2-b][1,4]oxazin-6-yl}-octahydro-1,3-benzoxazol-6-yl]amino}propyl)-2-oxo-1,2-dihydroquinoline-7-carbonitrile]: the MIC (in assay [1]; in the assay on E. coli ATCC BAA-2452; in [2]; in assay [3]; in [4]; in assay [5]) was under 1 µg/mL throughout. Besides, the MIC (with E. coli MG1655; in assay [7]; in assay [8]; in the assay with E. coli NCTC 13476; in assay [9]) was under 1 µg/mL in each case. Moreover, the “Fold increase in MIC, E. coli MG1655 D87G” value in the assay with E. coli MG1655 D87G (setting [10]) turned out to be 1 fold. Moreover, in [6], the IC50 was in the range of 10 to 100 µg/mL (≈ 19.4 to 194 µM). In addition, in the assay with E. coli MG1655 S83L (setting [11]), the “Fold increase in MIC, E. coli MG1655 S83L” value is given as 1 fold.
As to `COc1ccc2ncc(=O)n(CCN[C@H]3CCC4C(C3)OC(=O)N4c3ccc4c(n3)NC(=O)CO4)c2n1` (stereo in doubt) [Compound 45, (3aS,6S,7aS)-6-[(2-{6-methoxy-3-oxo-3H,4H-pyrido[2,3-b]pyrazin-4-yl}ethyl)amino]-3-{3-oxo-2H,3H,4H-pyrido[3,2-b][1,4]oxazin-6-yl}-octahydro-1,3-benzoxazol-2-one], the MIC (in [1]; in the assay on E. coli ATCC BAA-2452; in [2]; in [3]; in [4]; in [5]) was under 1 µg/mL in each case. For the same molecule, the MIC was under 1 µg/mL with E. coli MG1655; 1 to 10 µg/mL (≈ 1.97 to 19.7 µM) in assay [7]; under 1 µg/mL in assay [8]; under 1 µg/mL in the assay with E. coli NCTC 13476; under 1 µg/mL in assay [9]. Also, the “Fold increase in MIC, E. coli MG1655 D87G” value in the assay on E. coli MG1655 D87G (setting [10]) was 1 fold. Also, the IC50 in assay [6] lay in the range of 10 to 100 µg/mL (≈ 19.7 to 197 µM). The “Fold increase in MIC, E. coli MG1655 S83L” value with E. coli MG1655 S83L (setting [11]) is on record as 2 fold.
For “1-[(2S)-3-{[(3aS,6S,7aS)-2-oxo-3-{3-oxo-2H,3H,4H-pyrido[3,2-b][1,4]oxazin-6-yl}-octahydro-1,3-benzoxazol-6-yl]amino}-2-hydroxypropyl]-7-fluoro-1,2-dihydroquinoxalin-2-one & 1-[(2R)-3-{[(3aS,6S,7aS)-2-oxo-3-{3-oxo-2H,3H,4H-pyrido[3,2-b][1,4]oxazin-6-yl}-octahydro-1,3-benzoxazol-6-yl]amino}-2-hydroxypropyl]-7-fluoro-1,2-dihydroquinoxalin-2-one [Compound 95]”, the “MIC, Ecl NCTC 13406” value in assay [1] is on record as “B (a MIC of from 1 to 10 is assigned the letter B)”. Also, the “Fold increase in MIC, E. coli MG1655 D87G” value in the assay with E. coli MG1655 D87G came to 1 fold. For the same molecule, in the assay on E. coli ATCC BAA-2452, the “MIC, Ec ATCC BAA 2452” value is on record as “A (an MIC (in μg/mL) of less or equal to 1 is assigned the letter A)”. Further, the “MIC, Sp ATCC 49619” value in assay [2] is given as “A (an MIC (in μg/mL) of less or equal to 1 is assigned the letter A)”. Besides, in assay [3], the “MIC, Hi ATCC 49247” value is on record as “A (an MIC (in μg/mL) of less or equal to 1 is assigned the letter A)”. The “MIC, Ec ATCC 25922” value in assay [4] is listed as “A (an MIC (in μg/mL) of less or equal to 1 is assigned the letter A)”. For the same molecule, the “MIC, Sa ATCC 29213” value in assay [5] is “A (an MIC (in μg/mL) of less or equal to 1 is assigned the letter A)”. For the same molecule, the “MIC, Ec MG1655 WT” value against E. coli MG1655 (Escherichia coli MG1655 WT, 16-20 h, mode of three independent experiments) is reported as “A (an MIC (in μg/mL) of less or equal to 1 is assigned the letter A)”. In [6] (HepG2 cell viability, 24 h, CellTiter-Glo), the “IC50 (μg/mL) HepG2” value was “A (an IC50 of over 100 is assigned the letter A)”. In the assay with E. coli MG1655 S83L, the “Fold increase in MIC, E. coli MG1655 S83L” value came out at 0.5 fold. In assay [7], the “MIC, Pa ATCC 27853” value is listed as “B (a MIC of from 1 to 10 is assigned the letter B)”. In assay [8], the “MIC, Ab ATCC 19606” value is on record as “B (a MIC of from 1 to 10 is assigned the letter B)”. Further, the “MIC, Ec NCTC 13476” value with E. coli NCTC 13476 is “A (an MIC (in μg/mL) of less or equal to 1 is assigned the letter A)”. The “MIC, Ab NCTC 13420” value in [9] is “A (an MIC (in μg/mL) of less or equal to 1 is assigned the letter A)”.
For the molecule `CN(CCn1c(=O)ccc2ccc(C#N)cc21)[C@H]1CC[C@H]2[C@@H](C1)OC(=O)N2c1ccc2c(n1)NC(=O)CO2` [Compound 47, 1-(2-{[(3aS,6S,7aR)-2-oxo-3-{3-oxo-2H,3H,4H-pyrido[3,2-b][1,4]oxazin-6-yl}-octahydro-1,3-benzoxazol-6-yl](methyl)amino}ethyl)-2-oxo-1,2-dihydroquinoline-7-carbonitrile], the MIC (in assay [1]; in the assay on E. coli ATCC BAA-2452; in [2]; in assay [3]; in assay [4]; in [5]) was under 1 µg/mL throughout. Also, the MIC is under 1 µg/mL in the assay on E. coli MG1655; under 1 µg/mL in assay [7]; under 1 µg/mL in assay [8]; 1 to 10 µg/mL (≈ 1.94 to 19.4 µM) with E. coli NCTC 13476; under 1 µg/mL in [9]. Further, the “Fold increase in MIC, E. coli MG1655 D87G” value in the assay with E. coli MG1655 D87G (setting [10]) is on record as 1 fold. In assay [6], the IC50 was 10 to 100 µg/mL (≈ 19.4 to 194 µM). Besides, in the assay on E. coli MG1655 S83L (setting [11]), the “Fold increase in MIC, E. coli MG1655 S83L” value amounted to 2 fold.
With `O=C1COc2ccc(N3C(=O)O[C@H]4C[C@@H](NCCn5c(=O)ccc6nccnc65)CC[C@@H]43)nc2N1` [Compound 100, (3aS,6S,7aS)-3-{3-oxo-2H,3H,4H-pyrido[3,2-b][1,4]oxazin-6-yl}-6-[(2-{6-oxo-5H,6H-pyrido[2,3-b]pyrazin-5-yl}ethyl)amino]-octahydro-1,3-benzoxazol-2-one], the MIC in assay [1] was 1 to 10 µg/mL (≈ 2.09 to 20.9 µM); in the assay with E. coli ATCC BAA-2452, 1 to 10 µg/mL (≈ 2.09 to 20.9 µM); in [2], under 1 µg/mL; in assay [3] it was under 1 µg/mL; in [4] it was under 1 µg/mL; in assay [5] it was under 1 µg/mL. Also, the MIC in the assay with E. coli MG1655 was under 1 µg/mL; in assay [7], 10 to 100 µg/mL (≈ 20.9 to 209 µM); in [8], 1 to 10 µg/mL (≈ 2.09 to 20.9 µM); in the assay on E. coli NCTC 13476, 1 to 10 µg/mL (≈ 2.09 to 20.9 µM); in assay [9] it was under 1 µg/mL. Moreover, the “Fold increase in MIC, E. coli MG1655 D87G” value with E. coli MG1655 D87G (setting [10]) was determined as 1 fold. In addition, the IC50 in assay [6] was over 100 µg/mL. Further, the “Fold increase in MIC, E. coli MG1655 S83L” value in the assay on E. coli MG1655 S83L (setting [11]) worked out at 1 fold.
